Test results from publication PMC8579695, “The Stringent Response Inhibits 70S Ribosome Formation in Staphylococcus aureus by Impeding GTPase-Ribosome Interactions” (mBio, 2021).

Legend:
[1] = molecular target: RbgA (Staphylococcus aureus, UniProt A0A0H2XK72); assay: GTPase activity assay of wild-type and Atto488-labeled RbgA; format: biochemical; settings: 100 μM ppGpp, 1 μM GTP, 0.1 μM RA-GTPase, 0.1 μM 70S ribosomes, 37°C, 60 min
Excerpt: To gain further insight into the binding mechanism and how (p)ppGpp reduces the association of RA-GTPases to the ribosomal subunits, we used a stopped-flow technique with fluorescent derivatives of the RA-GTPases (Fig. 3A). Structural predictions of all four RA-GTPases were built by homology modeling using available structures to assess the availability of suitable residues for fluorescence labeling (see Fig. S3A and B) ([43]). Both RbgA and HflX were amenable to covalent linkage to the fluorophore Atto-488 using maleimide chemistry with exposed cysteine residues. […]
Supplementary file : FIG S3 Labeling sites and GTPase activity of Atto488-labelled proteins. […] Enzymatic activity was monitored by TLC and quantified by using ImageQuant. […]
GTPase activity assays were performed as previously described ([10]). Briefly, the ability of proteins to hydrolyze GTP was determined by incubating 100 nM recombinant protein with 100 nM S. aureus 70S ribosomes, 1 μM GTP and 2.78 nM [α-^32P]GTP in 40 mM Tris (pH 7.5), 100 mM NaCl (100 mM KCl for RbgA), and 10 mM MgCl2 at 37°C for the indicated times. […] The radioactive spots were exposed to a BAS-MS imaging plate (Fujifilm) and visualized using an LA 7000 Typhoon PhosphorImager (GE Healthcare), and images were quantified using ImageQuant (GE Healthcare).

[2] = tested on: RA-GTPases RsgA, RbgA, Era, and HflX; assay: Hydrolysis of pppGpp by the RA-GTPases; format: biochemical, Staphylococcus aureus
Excerpt: It is well characterized that rRNA transcription decreases during the stringent response ([39]). In addition, the GTPase activity of ribosome assembly cofactors is inhibited by (p)ppGpp, both of which contribute to a reduction in mature ribosomes within the cell ([27]). To examine mechanistically how (p)ppGpp-GTPase interactions affect the ability of RA-GTPases to associate with ribosomal subunits, we examined the association of each GTPase to either the 30S or 50S ribosomal subunit in the presence of GDP, GTP, ppGpp, and pppGpp, as well as GMPPNP, a nonhydrolyzable analogue of GTP. […] His-tagged GTPases were preincubated with highly pure, salt-washed 70S S. aureus ribosomes in a low-magnesium buffer to encourage ribosomal subunit dissociation, and the amount of each GTPase associated with each of the subunits was quantified by Western immunoblotting with anti-His antibodies after sucrose gradient separation. […]
GTPase activity assays were performed as previously described ([10]). […] The radioactive spots were exposed to a BAS-MS imaging plate (Fujifilm) and visualized using an LA 7000 Typhoon PhosphorImager (GE Healthcare), and images were quantified using ImageQuant (GE Healthcare).

Sequence of RbgA (A0A0H2XK72 entry or part of it): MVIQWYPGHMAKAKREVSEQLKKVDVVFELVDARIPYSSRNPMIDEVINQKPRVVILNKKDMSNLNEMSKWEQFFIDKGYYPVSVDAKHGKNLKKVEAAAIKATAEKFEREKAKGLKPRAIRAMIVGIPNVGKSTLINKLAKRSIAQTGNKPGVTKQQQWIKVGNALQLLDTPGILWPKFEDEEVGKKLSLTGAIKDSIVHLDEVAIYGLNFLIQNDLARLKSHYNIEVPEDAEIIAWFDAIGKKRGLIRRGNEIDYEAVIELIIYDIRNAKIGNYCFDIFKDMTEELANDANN

SMILES | inhibition of GTPase activity of Atto488-labeled RbgA [1] | hydrolysis of pppGpp by the four RA-GTPases [2]
Nc1nc2c(ncn2[C@@H]2O[C@H](COP(=O)(O)OP(=O)(O)O)[C@@H](OP(=O)(O)OP(=O)(O)O)[C@H]2O)c(=O)[nH]1 [ppGpp] | can still be inhibited | 
Nc1nc2c(ncn2[C@@H]2O[C@H](COP(=O)(O)OP(=O)(O)OP(=O)(O)O)[C@@H](OP(=O)(O)OP(=O)(O)O)[C@H]2O)c(=O)[nH]1 [pppGpp] |  | unable to hydrolyze
